# System: Mito-mCh
# Experiment: mitochondria (Mito) translocation assay of rapabody and caffebody
# Type: cell-based
# Conditions: HeLa cells, GFP-caffebody and Mito-mCh
# Protocol: For ligand-controllable nanobodies rapabody and caffebody, similar imaging and data analysis procedures were used. Transfected HeLa cells were incubated with normal growth media or media supplemented with different concentrations of ligands or diluted beverages as indicated in the figures. Coffees and teas were purchased from Starbucks, while other drinks were purchased from a grocery store.
# The instant example evaluates whether the installation of genetically-encoded chemical switches would likewise enable chemogenetic control of nanobodies. The LOV2 domain in the S3 loop of sunbody was substituted with two ligand-controllable precision switches, UniRapR and a dimeric concatemer of acVHH (2×acVHH; FIG. 23A). UniRapR, engineered from the FKBP-FRB based chemically-inducible dimerization system, has been used to enable rapamycin-induced allosteric control of a wide range of host proteins, including kinases and GTPases. Further, acVHH is known to induce self-dimerization upon addition of caffeine, and thus it was hypothesized to elicit conformational changes when inserted into a host protein as a dimeric concatemer. These intrabody compositions were named “rapabodies” and “caffebodies”, respectively, to reflect the compounds used for chemogenetic manipulation. […]
compound,measurement,value
Cn1c(=O)c2[nH]cnc2n(C)c1=O [theophylline],activation of caffebody by caffeine analog or beverages,could similarly activate caffebody

# Source: patent US20250122266A1, “SMART SINGLE-DOMAIN INTRABODIES WITH PRECISION SWITCHES FOR BIOMEDICAL APPLICATIONS” (THE TEXAS A&M UNIVERSITY SYSTEM, priority 2020, published 2025)
